# Marks after values point to notes of the source that are not given here.
# Columns and labels:
# [1] = system: TG-mice; assay: Open field test of locomotor activity; type: in vivo; settings: 3 months
# Description: 5) Locomotor assay: To measure the locomotor activity, the numbers of total entries were measured for each animal. Statistical differences were determined using ANOVA. These experiments will determine the effects of D-P on anxiety levels.
# DHM-Piperidine Complex (D-P) can replicate DHM effects to improve behavioral impairment in TG-mice. We examined the effect of D-P on AD symptom-like behavior in aged TG2576 mice compared with age-matched wt mice. Mice were divided into three groups: (1) C57BL/6 wt male mice (2% sucrose, oral administration), (2) TG-mice (2% sucrose, oral administration), and (3) TG-mice with D-P (2 mg/kg in 2% sucrose), respectively. After 3 months of treatment, mice were examined with behavioral assays.
# Locomotor activity was assayed with open field test. Running distance is one of the parameters quantifying locomotor activity (FIG. 4A). Wt control mice ran 882±55 cm during 10 min. TG-mice ran a much shorter distance (255±12 cm), while the running distance of TG-mice treated with D-P increased to 611±99 cm. […] D-P treatment in TG-mice increased rearing (19.3±2.0 times), times to explore the center (1.3±2.0 times), and duration to stay at the center (0.13±0.03 min). […] Daily oral D-P treatment for TG-mice improves locomotor activity and increased exploring activity, an instinct of animals. Anxiety was assayed with the EPM (FIG. 4D). The wt control spent 48.5±7.5% of total time in open arms and 33.5±3.2% in closed arms.
# [2] = system: TG-mice; assay: Novel Object Recognition (NOR); type: in vivo; settings: 1 mg/kg oral in 2% sucrose, 3 months, untreated TG 51.2±3.6%, wt 68.9±6.8%
# Description: 4) Memory Test Protocol. Novel Object Recognition (NOR): Day 1-3: Habituation (once/day). Top open containers (open field) were used with video camera to record animal behavior. An animal was put into a container with no objects for 5 min. Context remained the same for each animal.
# Day 4, Familiarization: Two identical objects (toys-FO: familiar object) were put into the container at specific positions. Then animals were put into the container to explore the objects for 5 min. Retention Trial 1.5 h: Each animal was placed in its home cage for 1.5 h after the familiarization. One of the toys was replaced with a new toy (NO, novel object and very different from FO). […]
# Day 5, Retention Trial 24 h: We placed another new toy (NO) along with an original object (FO) in the container. […] We scored the animal behavior offline according to how long the animal spent exploring each object. The Object Recognition Index (ORI) was calculated, such that ORI=(tn−tf)/(tn+tf), where tf and tn represent times of exploring the familiar and novel objects, respectively.
# Mice were divided into four groups: (1) C57BL/6 wt male mice were treated with oral administration of 2% sucrose; (2) C57B1/6 wt male mice with oral administration of 1 mg/kg D-P in 2% sucrose; (3) TG-mice with oral administration of 2% sucrose; and (4) TG-mice with 1 mg/kg D-P in 2% sucrose. […] Next, we evaluated NCR (FIG. 3C). The RI was calculated.
# [3] = system: GABAARs; assay: Whole-cell voltage-clamped recordings from hippocampal DGCs in slices (Itonic, mIPSCs); type: cell-based, rats; settings: for GABAergic Itonic: basal Itonic 20 pA
# Excerpt: 2) Whole-Cell Patch-Clamp Recordings from Brain Slices. Transverse slices (400 lm) of dorsal hippocampus were obtained from wt and TG-SwDI mice (male, 20 months old) using a vibratome (VT 100; Technical Products International). Slices were perfused continuously with artificial CSF (ACSF) composed of the following (in mM): 125 NaCl, 2.5 KCl, 2 CaCl2, 2 MgCl2, 26 NaHCO3, and 10 D-glucose. The ACSF was bubbled continuously with 95% O2/5% CO2 to ensure adequate oxygenation of slices and a pH of 7.4 and kept at 34±0.5° C. for perfusion. TTX (0.5 μM), APV (40 μM), CNQX (10 μM), and CGP54626 (1 μM, GABABR antagonist) were added to ACSF to pharmacologically isolate GABAAR-mediated mIPSCs. Patch electrodes were filled with internal solution containing the following (in mM): 137 CsCl, 2 MgCl2, 1 CaCl2, 11 EGTA, 10 HEPES, and 3 ATP, pH adjusted to 7.30 with CsOH. Recordings targeted dentate gyms granule cells (DGCs) of hippocampal slices. Voltage-clamp whole-cell recording was performed using a patch clamp amplifier 3) EPM: All animals were tested anxiety levels on EPM. Animals were placed on the central area of the maze, tested for 5 min and video recorded. The following measures were scored: number of entries into open arms, closed arms, or center platform and time spent in each of these areas. Data were reported as % of number of entries in arms, % of time spent in different entries, and number of total entries.
# To evaluate whether DHM-Piperidine Complex (D-P) can still potentiate GABAARs, whole-cell voltage-clamped recordings from hippocampal DGCs in slices were performed to test D-P and compared with DHM effects on GABAergic tonic current (Itonic) and miniature inhibitory postsynaptic currents (mIPSCs). […] Compared with DHM enhancing GABAergic Itonic from 20 pA (basal Itonic)→28 pA→31 pA→52 pA→55 pA, D-P enhancing GABAergic Itonic from 20 pA (basal Itonic)→35 pA→42 pA →65 pA→70 pA (Table 1).
substance,measurement,setting,value
"piperidin-1-ium (2R,3R)-2-(3,4-dihydroxy-5-oxidophenyl)-3,5-dihydroxy-4-oxochroman-7-olate [D-P]",running distance,"[1]; 2 mg/kg in 2% sucrose, 10 min, untreated TG 255±12",611±99 cm
same,duration to stay at the center,"[1]; 2 mg/kg, untreated TG 0.02±0.01",0.13 ± 0.03 min
same,times to explore the center,"[1]; 2 mg/kg, untreated TG 0.2±0.1",1.3±2.0 times
same,rearing,"[1]; 2 mg/kg, untreated TG 12.5±2.1",19.3±2.0 times
same,Object Recognition Index (ORI),[2],70.1±6.8%
same,"Itonic, percent in brackets (increase over basal)",[3]; 0.1 μM,(75%)*
same,mIPSCs (area potentiated),[3]; 0.1 μM,16.7%*
same,GABAergic Itonic,[3]; 0.1 μM,35 pA
same,"Itonic, percent in brackets (increase over basal)",[3]; 0.3 μM,(110%)*
same,mIPSCs (area potentiated),[3]; 0.3 μM,23.3%*
same,GABAergic Itonic,[3]; 0.3 μM,42 pA
same,"Itonic, percent in brackets (increase over basal)",[3]; 1 μM,(225%)*
same,mIPSCs (area potentiated),[3]; 1 μM,100.0%*
same,GABAergic Itonic,[3]; 1 μM,65 pA
same,"Itonic, percent in brackets (increase over basal)",[3]; 10 μM,(250%)*
same,mIPSCs (area potentiated),[3]; 10 μM,133.3%*
same,GABAergic Itonic,[3]; 10 μM,70 pA

# From US12194021B2, “Modified herbal compositions for neuromodulation” (University of Southern California, priority 2021, dated 2025)
